Measured values: ChEMBL document CHEMBL5338746, “New Generation of sGC Stimulators: Discovery of Imidazo[1,2-a]pyridine Carboxamide BAY 1165747 (BAY-747), a Long-Acting Soluble Guanylate Cyclase Stimulator for the Treatment of Resistant Hypertension” (J Med Chem, 2023)
pIC50: −log10 of the molar value. Values after ≈ are worked out from the molar mass of the structure shown. Active and inactive are the calls of the source. The rule behind the calls is not given here.

What was measured:
[1] = target: T1, Soluble guanylate cyclase alpha1/beta1 complex (Rattus norvegicus) (UniProt P19686+P20595); assay: Stimulation of recombinant rat sGC alpha1/beta1 expressed in CHO cells assessed as formation of cGMP from GTP by measuring concentration for >3-fold increase in the basal luminescence value by luminescence based analysis; type: cell-based; settings: filed as activator
[2] = Metabolic stability in rat hepatocytes assessed as clearance measured upto 90 mins by LC-MS/MS analysis; type: ADME, cell-based, Hepatocyte
[3] = Fraction unbound in po or iv dosed Wistar rat; type: ADME, organism-based; settings: in vivo
[4] = Apparent permeability across apical to basolateral side in human Caco-2 cells incubated for 2 hrs by LC-MS/MS analysis; type: ADME, cell-based
[5] = Efflux ratio of apparent permeability basolateral to apical side over apical to basolateral side in human Caco-2 cells incubated for 2 hrs by LC-MS/MS analysis; type: ADME, cell-based
[6] = Blood clearance in Wistar rat at 0.3 mg/kg, iv administered as infusion incubated for 20 mins by HR LC-MS/MS analysis; type: ADME, organism-based; settings: whole blood
[7] = Volume of distribution at steady state in Wistar rat at 0.3 mg/kg, iv administered as infusion by LC-MS/MS analysis; type: ADME, organism-based; settings: in vivo, read-out: Vdss
[8] = Half life in Wistar rat at 0.3 mg/kg, iv administered as infusion by LC-MS/MS analysis; type: ADME, organism-based; settings: in vivo
[9] = Oral bioavailability in Wistar rat at 1 mg/kg by LC-MS/MS analysis; type: ADME, organism-based; settings: in vivo
[10] = Solubility of compound in PBS at pH 6.5 measured for 24 hrs by LC-MS/MS analysis; type: physicochemical
[11] = target: T1, Soluble guanylate cyclase alpha1/beta1 complex (Rattus norvegicus); assay: Stimulation of recombinant rat sGC alpha1/beta1 expressed in CHO cells assessed as formation of cGMP from GTP in presence of NO donor SNAP by measuring basal luminescence value by luminescence based analysis; type: cell-based; settings: filed as activator, dose 300.0 nM
CHO = assay: Stimulation of recombinant rat sGC alpha1/beta1 expressed in CHO cells assessed as formation of cGMP from GTP in presence of […] ODQ by measuring basal luminescence value by luminescence based analysis; type: cell-based; settings: dose 300.0 nM, time 3.0 hrs
Aorta = assay: Vasorelaxant activity in New Zealand White rabbits aortic rings assessed as reduction in phenylephrine-induced contraction measured after 30 mins; type: functional, tissue-based; settings: Oryctolagus cuniculus, 0.5 h

SMILES	MEC [1] [µM]	CLhep predicted [2] [mL/min/kg]	further results
CCCC[C@H](CO)NC(=O)c1c(C)nc2c(OCc3c(C)cccc3C)cccn12	3	43.3	
CCCC[C@H](CO)NC(=O)c1c(C)nc2c(OCCC(C)C)cccn12	1	48.3	
CCCC[C@H](CO)NC(=O)c1c(C)nc2c(OCc3c(F)cccc3F)cc(Cl)cn12	0.01	48.3	
Cc1nc2c(OCC3CCC3)cccn2c1C(=O)NCCOCCO	3	25	
Cc1nc2c(OCC3CCC3)cccn2c1C(=O)NCc1ccc(Cl)cc1	1	60	Drug metabolism [11]: Active; Drug metabolism (CHO): inactive; pIC50 (Aorta): 6.08
CCCC[C@H](CO)NC(=O)c1c(C2CC2)nc2c(OCc3c(F)cccc3F)cccn12	0.3	36.7	

Continued, in another order:

MEC [1] [µM]	CLhep predicted [2] [mL/min/kg]	SMILES	further results
0.05	33.3	CCCC[C@H](CO)NC(=O)c1c(C)nc2c(OCc3c(F)cccc3F)cccn12	fraction unbound [3]: 0.049; Papp A→B at 2 h [4]: 41.3 ×10⁻⁶ cm/s; efflux ratio at 2 h [5]: 0.6; clearance at […] [6]: 26.7 mL/min/kg; Vd [7]: 0.9 L/kg; half-life [8]: 48 min; bioavailability [9]: 65%; solubility at 24 h [10]: 3 µg/mL (≈ 7.19 µM)
0.3	25	CCCC[C@H](CO)NC(=O)c1c(C)nc2c(OCc3cccc(F)c3F)cccn12	
0.1	26.7	CCCC[C@H](CO)NC(=O)c1c(C)nc2c(OCc3c(F)cc(F)cc3F)cccn12	
